Laboratory results from the NIST ThermoML archive (doi:10.1021/je1002626).

What was measured:
[1] = 101.33 kPa, Liquid, Pycnometric method
[2] = wn = mass fraction of the nth substance listed; conditions: for surface tension liquid-gas: Ring tensiometer; for mass density: 101.3 kPa, Liquid, Pycnometric method

CNCCO [2-(methylamino)ethanol]
[1]
Conditions	mass density [kg/m3]
298.15 K	936.18
303.15 K	932.26
313.15 K	924.42
323.15 K	916.48

CNCCO [2-(methylamino)ethanol] + O
[2]
Conditions	mass density [kg/m3]	surface tension liquid-gas [mN/m]
298 K, w1 = 0.1	–	60.85
298 K, w1 = 0.2	–	56.11
298 K, w1 = 0.3	–	52.51
298 K, w1 = 0.4	–	49.16
298.15 K, w1 = 0.178	996.31	–
298.15 K, w1 = 1	936.18	–
303 K, w1 = 0.1	–	60.02
303 K, w1 = 0.2	–	55.28
303 K, w1 = 0.3	–	52.33
303 K, w1 = 0.4	–	48.15
303.15 K, w1 = 0.178	994.38	–
303.15 K, w1 = 1	932.26	–
308 K, w1 = 0.1	–	59.5
308 K, w1 = 0.2	–	54.5
308 K, w1 = 0.3	–	51.46
308 K, w1 = 0.4	–	47.2
308.15 K, w1 = 0.178	993.12	–
313 K, w1 = 0.1	–	58.65
313 K, w1 = 0.2	–	53.42
313 K, w1 = 0.3	–	50.18
313 K, w1 = 0.4	–	46.67
313.15 K, w1 = 0.178	990.09	–
313.15 K, w1 = 1	924.42	–
318 K, w1 = 0.1	–	57.66
318 K, w1 = 0.2	–	52.78
318 K, w1 = 0.3	–	49.42
318 K, w1 = 0.4	–	45.72
318.15 K, w1 = 0.178	988.61	–
323 K, w1 = 0.1	–	56.89
323 K, w1 = 0.2	–	51.79
323 K, w1 = 0.3	–	48.9
323 K, w1 = 0.4	–	44.92
323.15 K, w1 = 0.178	984.89	–
323.15 K, w1 = 1	916.48	–
